Reference: US20160355530A1, “HEPATITIS C INHIBITORS AND USES THEREOF” (AbbVie Inc., priority 2010, published 2016)
Like-named read-outs stand apart in the source and are kept apart here.

Legend:
[1] = system: HCV 1b-BB7 subgenomic replicon; experiment: microbe, parasite or virus in culture; assay type: cell-based, HCV genotype 1b; details: Hepatitis C virus, stable replicon
[2] = system: HCV 1a-H77-C316Y transient subgenomic replicon in Huh-7 derived cell line; experiment: microbe, parasite or virus in culture; assay type: cell-based, HCV genotype 1a; details: for EC50: Hepatitis C virus, Huh-7, read-out: Transient Replicon 1a H77-C316Y 5% FBS EC50; for Transient Replicon Fold Resistance C316Y/1a: ratio of transient replicon EC50s, C316Y / 1a H77
Description: (§1) In addition to the stable replicon inhibition assays, transient replicon assays were performed. Transient replicons are identical to the 1a-H77 and 1a-H77-C316Y constructs, except they lack the Neo gene, making it impossible to establish stable cell lines. A T7 Megascript RNA synthesis kit (Ambion) was used to transcribe the HCV subgenomic RNA. The HCV RNA was then precipitated with lithium chloride according to manufacturer's instructions. The HCV subgenomic replicon RNA was transfected via electroporation into a Huh-7 derived cell line as described (Middleton T, et al. J. Virological Methods 2007; 145(2): 137-145). Transfected cells were diluted and plated in 96 well plates at 5×10^3 cells per well in DMEM. Four hours post-transfection, the wells from one plate were harvested for luciferase measurement. This plate provides a measure of the amount of translatable input RNA, and therefore transfection efficiency. To the wells of the remaining plates, a 3-fold dilution series of test compounds was added in DMSO (0.5% DMSO final concentration), and plates were incubated at 37° C., 5% CO2 in a humidified incubator for 4 days. After this period, the media was removed and the plates were washed with 100 μL phosphate-buffered saline per well. For the luciferase assay, 30 μL of Passive Lysis buffer (Promega) was added to each well, and then the plates were incubated for 15 minutes with rocking to lyse the cells. Luciferin solution (100 μL, Promega) was added to each well, and luciferase activity was measured with a Victor II luminometer (Perkin-Elmer). The EC50 values were calculated using GraphPad Prism 4 software.

[3] = system: HCV 1a-H77 transient subgenomic replicon in Huh-7 derived cell line; experiment: microbe, parasite or virus in culture; assay type: cell-based, HCV genotype 1a; details: Hepatitis C virus, Huh-7; transient replicon, 5% FBS; read-out: Transient Replicon 1a H77 5% FBS EC50
Description: as §1

[4] = system: HCV NS5B polymerase 1a-H77-C316Y; experiment: biochemical; design: species or system HCV genotype 1a; details: ratio of enzyme IC50s, 1a H77-C316Y / 1a H77
In short: (§2)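 E. coli-expressed NS5B (residues 1-570, His-tagged) transcribed a 2.1 kb HCV 1b negative-strand 3′-end RNA template (5 nM) with 20 μM CTP, 20 μM ATP and 0.284 μM [3H]UTP for 3 h at 30° C. Spermine-precipitated RNA was filter-captured and counted by scintillation; IC50 from nonlinear regression.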

[5] = molecular target: T1, HCV NS5B polymerase 1a-H77 (Hepatitis C virus genotype 1a, UniProt P27958); experiment: biochemical; design: species or system HCV genotype 1a
T1 construct: six-histidine tag; made in house; host or cells: E. coli
T1 sequence (P27958 2421-2990): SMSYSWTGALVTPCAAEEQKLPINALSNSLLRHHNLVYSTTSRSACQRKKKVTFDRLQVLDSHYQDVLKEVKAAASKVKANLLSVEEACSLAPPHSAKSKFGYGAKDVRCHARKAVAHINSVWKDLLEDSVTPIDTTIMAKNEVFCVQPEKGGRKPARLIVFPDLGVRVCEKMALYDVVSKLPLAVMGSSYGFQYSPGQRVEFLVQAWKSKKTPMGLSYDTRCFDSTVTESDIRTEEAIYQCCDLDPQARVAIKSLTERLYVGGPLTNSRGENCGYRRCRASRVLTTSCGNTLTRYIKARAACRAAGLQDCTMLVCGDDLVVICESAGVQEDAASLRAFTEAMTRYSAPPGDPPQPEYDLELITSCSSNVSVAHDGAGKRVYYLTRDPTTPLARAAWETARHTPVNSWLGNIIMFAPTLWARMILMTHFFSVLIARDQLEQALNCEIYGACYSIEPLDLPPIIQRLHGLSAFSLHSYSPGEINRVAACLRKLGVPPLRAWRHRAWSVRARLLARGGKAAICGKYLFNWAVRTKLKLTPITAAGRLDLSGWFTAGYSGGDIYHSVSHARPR
In short: as §2

[6] = molecular target: T2, HCV NS5B polymerase 1a-H77-C316Y (Hepatitis C virus genotype 1a, UniProt P27958, C2736Y); experiment: biochemical; design: species or system HCV genotype 1a
T2 construct: six-histidine tag; made in house; host or cells: E. coli
T2 sequence (P27958 2421-2990 C2736Y): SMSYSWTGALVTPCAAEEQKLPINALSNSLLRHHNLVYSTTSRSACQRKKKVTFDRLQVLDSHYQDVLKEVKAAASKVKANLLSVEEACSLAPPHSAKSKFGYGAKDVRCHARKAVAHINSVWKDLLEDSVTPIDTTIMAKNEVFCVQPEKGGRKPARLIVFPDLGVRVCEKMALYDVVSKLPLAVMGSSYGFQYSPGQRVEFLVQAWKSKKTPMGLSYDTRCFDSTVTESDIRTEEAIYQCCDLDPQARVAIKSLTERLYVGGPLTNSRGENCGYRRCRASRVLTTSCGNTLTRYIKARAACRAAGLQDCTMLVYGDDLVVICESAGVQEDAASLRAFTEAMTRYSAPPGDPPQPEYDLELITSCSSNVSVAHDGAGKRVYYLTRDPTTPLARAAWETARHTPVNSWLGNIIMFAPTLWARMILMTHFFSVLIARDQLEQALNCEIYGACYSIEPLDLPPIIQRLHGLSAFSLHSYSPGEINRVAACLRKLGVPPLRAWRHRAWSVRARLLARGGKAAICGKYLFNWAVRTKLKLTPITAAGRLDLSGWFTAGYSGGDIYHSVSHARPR
In short: as §2

[7] = system: HCV 1a-H77 subgenomic replicon; experiment: microbe, parasite or virus in culture; assay type: cell-based, HCV genotype 1a; details: Hepatitis C virus, stable replicon
[8] = system: chimeric replicon with genotype 4a NS5B; experiment: microbe, parasite or virus in culture; assay type: cell-based, HCV genotype 4a; details: Hepatitis C virus, read-out: 4a chimera 5% FBS EC50
[9] = system: chimeric replicon with 2a-J6CF-derived NS5B; experiment: microbe, parasite or virus in culture; assay type: cell-based, HCV genotype 2a; details: Hepatitis C virus, read-out: 2a chimera 5% FBS EC50
[10] = molecular target: T3, HCV NS5B polymerase 1b BK strain (Hepatitis C virus genotype 1b, UniProt P26663); experiment: HCV NS5B polymerase enzymatic inhibition assay, strain 1b BK; assay type: biochemical; details: enzyme, strain 1b BK; read-out: HCV Polymerase Strain 1b BK IC50
T3 construct: six-histidine tag; made in house; host or cells: E. coli
T3 sequence (P26663 2420-2989): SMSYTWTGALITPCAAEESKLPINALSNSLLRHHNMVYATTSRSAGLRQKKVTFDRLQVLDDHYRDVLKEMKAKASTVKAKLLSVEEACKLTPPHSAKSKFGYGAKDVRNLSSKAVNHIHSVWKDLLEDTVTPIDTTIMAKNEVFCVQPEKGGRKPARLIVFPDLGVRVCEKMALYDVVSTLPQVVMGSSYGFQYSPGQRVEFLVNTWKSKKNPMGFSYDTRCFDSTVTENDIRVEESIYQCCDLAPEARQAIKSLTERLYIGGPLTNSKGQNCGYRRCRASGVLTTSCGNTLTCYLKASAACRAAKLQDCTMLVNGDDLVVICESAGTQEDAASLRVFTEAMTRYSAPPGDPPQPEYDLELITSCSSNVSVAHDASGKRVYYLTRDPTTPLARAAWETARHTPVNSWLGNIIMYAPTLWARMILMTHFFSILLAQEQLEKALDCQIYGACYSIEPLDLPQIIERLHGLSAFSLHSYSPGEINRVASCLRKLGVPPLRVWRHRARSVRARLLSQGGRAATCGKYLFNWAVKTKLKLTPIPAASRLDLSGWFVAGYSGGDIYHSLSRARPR
In short: as §2

[11] = system: chimeric replicon with genotype 3a NS5B; experiment: microbe, parasite or virus in culture; assay type: cell-based, HCV genotype 3a; details: Hepatitis C virus, read-out: 3a chimera 5% FBS EC50
[12] = system: chimeric replicon with genotype 2b NS5B; experiment: microbe, parasite or virus in culture; assay type: cell-based, HCV genotype 2b; details: Hepatitis C virus, read-out: 2b chimera 5% FBS EC50
[13] = strain 1b BB7, 5% FBS + 40% human plasma, read-out: 1b BB7 5% FBS + 40% Human Plasma EC50
[14] = strain 1b BB7, 5% FBS, no human plasma, read-out: 1b BB7 5% FBS EC50
[15] = strain 1b BB7, 5% FBS, read-out: 1b BB7 5% FBS EC50
[16] = enzyme, strain 1a H77, read-out: HCV Polymerase Strain 1a H77 IC50
[17] = 5% FBS, absence of human plasma, read-out: Stable Replicon 1a H77 5% FBS EC50
[18] = strain 1a H77, 5% FBS + 40% human plasma, read-out: 1a H77 5% FBS + 40% Human Plasma EC50
[19] = strain 1a H77, 5% FBS, no human plasma, read-out: 1a H77 5% FBS EC50
[20] = strain 1a H77, 5% FBS, read-out: 1a H77 5% FBS EC50

SMILES | EC50 [1, 13] [nM] | EC50 [1, 14] [nM] | EC50 [1, 15] [nM] | EC50 [2] [nM] | Transient Replicon Fold Resistance C316Y/1a [2] [fold] | EC50 [3] [nM] | C316Y/1a Fold Resistance [4] [fold] | IC50 [5, 16] [nM] | IC50 [6] [nM] | EC50 [7, 17] [nM] | EC50 [7, 18] [nM] | EC50 [7, 19] [nM] | EC50 [7, 20] [nM] | EC50 [8] [nM] | EC50 [9] [nM] | IC50 [10] [nM] | EC50 [11] [nM] | EC50 [12] [nM] | IC50 [5] [nM]
CS(=O)(=O)N(CCCCO)c1cc2oc(-c3ccc(F)cc3)c(C3=NOCCN3)c2cc1C1CC1 [Example 8, N-[5-cyclopropyl-3-(5,6-dihydro-4H-1,2,4-oxadiazin-3-yl)-2-(4-fluorophenyl)-1-benzofuran-6-yl]-N-(4-hydroxybutyl)methanesulfonamide] | 64 | 10 | 10 | 31.4 | 10 | 3.1 | 6 | 4.9 | 31 | 6.3 | 36 | 6.3 | 6.3 | 71.6 | 117 | 27 | 19.9 | 101 | –
CS(=O)(=O)CCN(c1cc2oc(-c3ccc(F)cc3)c(C3=NOCCN3)c2cc1C1CC1)S(C)(=O)=O [Example 9, N-[5-cyclopropyl-3-(5,6-dihydro-4H-1,2,4-oxadiazin-3-yl)-2-(4-fluorophenyl)-1-benzofuran-6-yl]-N-[2-(methylsulfonyl)ethyl]methanesulfonamide] | 138 | 15 | 15 | 57.5 | 7 | 7.7 | 8 | 3.9 | 30 | 8.4 | 67 | 8.4 | 8.4 | 125 | 293 | 34 | 22.6 | 298 | –
CC1NC(c2c(-c3ccc(F)cc3)oc3cc(N(CCCCO)S(C)(=O)=O)c(C4CC4)cc23)=NO1 (stereo not drawn) [Example 11, N-[5-cyclopropyl-2-(4-fluorophenyl)-3-(5-methyl-4,5-dihydro-1,2,4-oxadiazol-3-yl)-1-benzofuran-6-yl]-N-(4-hydroxybutyl)methanesulfonamide] | 199 | 10.3 | 10.3 | 34.4 | 11 | 3 | 5 | 5.9 | 30 | 8 | 100 | 8 | 8 | 24.4 | 85 | 20 | 16.6 | 98.5 | –
CC1NC(c2c(-c3ccc(F)cc3)oc3cc(N(CCS(C)(=O)=O)S(C)(=O)=O)c(C4CC4)cc23)=NO1 (stereo not drawn) [Example 12, N-[5-cyclopropyl-2-(4-fluorophenyl)-3-(5-methyl-4,5-dihydro-1,2,4-oxadiazol-3-yl)-1-benzofuran-6-yl]-N-[2-(methylsulfonyl)ethyl]methanesulfonamide] | 82 | 11 | 11 | 1220 | 16 | 78 | 8 | 5.5 | 43 | 42.6 | 50 | 42.6 | 42.6 | 73.3 | 285 | 17 | 26 | 221 | –
CC1NC(c2c(-c3ccc(F)cc3)oc3cc(N(CC[S+](C)[O-])S(C)(=O)=O)c(C4CC4)cc23)=NO1 (stereo not drawn) [Example 13, N-[5-cyclopropyl-2-(4-fluorophenyl)-3-(5-methyl-4,5-dihydro-1,2,4-oxadiazol-3-yl)-1-benzofuran-6-yl]-N-[2-(methylsulfinyl)ethyl]methanesulfonamide] | 146 | 15.9 | 15.9 | 134 | 12 | 11.1 | 16 | 7.4 | 115 | 14.8 | 163 | 14.8 | 14.8 | 159 | 384 | 26 | 42 | 307 | –
CS(=O)(=O)N(CCCS(N)(=O)=O)c1cc2oc(-c3ccc(F)cc3)c(C3=NOCN3)c2cc1C1CC1 [Example 15, 3-{[5-cyclopropyl-3-(4,5-dihydro-1,2,4-oxadiazol-3-yl)-2-(4-fluorophenyl)-1-benzofuran-6-yl](methylsulfonyl)amino}propane-1-sulfonamide] | 818 | 10 | 10 | 166 | 20 | 8.2 | 10 | – | 31 | 6.5 | 1770 | 6.5 | 6.5 | 142 | 128 | 11 | 12 | 105 | 3
CS(=O)(=O)N(CCCCO)c1cc2oc(-c3ccc(F)cc3)c(C3=NOCN3)c2cc1C1CC1 [Example 16, N-[5-cyclopropyl-3-(4,5-dihydro-1,2,4-oxadiazol-3-yl)-2-(4-fluorophenyl)-1-benzofuran-6-yl]-N-(4-hydroxybutyl)methanesulfonamide] | 2190 | 2.5 | 2.5 | 43.7 | 17 | 2.6 | 12 | 3 | 35 | 3.8 | 411 | 3.8 | 3.8 | 61.3 | 43.8 | 18 | 5.5 | 60.4 | –
CC(C)CCN(c1cn2nc(-c3ccc(F)cc3)c(-c3ncc[nH]3)c2cc1C1CC1)S(C)(=O)=O [Example 17, N-[5-cyclopropyl-2-(4-fluorophenyl)-3-(1H-imidazol-2-yl)pyrazolo[1,5-a]pyridin-6-yl]-N-(3-methylbutyl)methanesulfonamide] | 395 | 57.2 | 57.2 | 838 | 15 | 55 | 52 | 34.9 | 1800 | 98.9 | 1200 | 98.9 | 98.9 | > 1000 | 1000 | 438 | 148 | 1000 | –
